Measurements taken from patent US9944602B2, “Piperidinone herbicides” (E. I. DU PONT DE NEMOURS AND COMPANY, priority 2014, dated 2018).

What was measured:
Type in all cases: in vivo
[1] = tested on: barnyardgrass (Echinochloa crus-galli); experiment: Test A postemergence barnyardgrass; settings: 0 to 100 scale, 0 is no effect, 100 is complete control
How it was run: (§1)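 Scores are visual injury ratings on a 0–100 scale (100 = complete control) taken about 10 d after treatment, relative to untreated greenhouse controls. Preemergence: directed soil spray over planted seeds in loam/sand; postemergence: spray onto one- to two-leaf plants 2–10 cm high; surfactant-containing solvent formulation.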

kochia (Kochia scoparia) [2] = experiment: Test A postemergence kochia; settings: 0 to 100 scale, 0 is no effect, 100 is complete control
How it was run: as §1

[3] = tested on: foxtail, giant (giant foxtail, Setaria faberii); experiment: Test A postemergence foxtail, giant; settings: 0 to 100 scale, 0 is no effect, 100 is complete control
How it was run: as §1

[4] = tested on: wheat (Triticum aestivum); experiment: Test A postemergence wheat; settings: 0 to 100 scale, 0 is no effect, 100 is complete control
How it was run: as §1

[5] = tested on: ryegrass, Italian (Italian ryegrass, Lolium multiflorum); experiment: Test A preemergence ryegrass, Italian; settings: 0 to 100 scale, 0 no effect, 100 complete control
How it was run: as §1

[6] = tested on: barnyardgrass (Echinochloa crus-galli); experiment: Test A preemergence barnyardgrass; settings: 0 to 100 scale
How it was run: as §1

[7] = tested on: ducksalad (Heteranthera limosa); experiment: Test B flooded paddy test ducksalad; settings: Table B, Flood
How it was run: (§2)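 Test pots carrying 2-leaf-stage seedlings were flooded to 3 cm above the soil surface when treated. Compound went directly into the standing water. Plants stayed in the greenhouse at that depth for 13 to 15 d before visual comparison with controls.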

[8] = tested on: pigweed (Amaranthus retroflexus); experiment: Test A postemergence pigweed; settings: 0 to 100 scale, 0 is no effect, 100 is complete control
How it was run: as §1

kochia (Kochia scoparia) [9] = experiment: Test A preemergence kochia; settings: 0 to 100 scale, 0 no effect, 100 complete control
How it was run: as §1

[10] = tested on: ryegrass, Italian (Italian ryegrass, Lolium multiflorum); experiment: Test A postemergence ryegrass, Italian; settings: 0 to 100 scale, 0 is no effect, 100 is complete control
How it was run: as §1

[11] = tested on: sedge, umbrella (small-flower umbrella sedge, Cyperus difformis); experiment: Test B flooded paddy test sedge, umbrella; settings: Table B, Flood
How it was run: as §2

[12] = tested on: pigweed (Amaranthus retroflexus); experiment: Test A preemergence pigweed; settings: 0 to 100 scale, 0 no effect, 100 complete control
How it was run: as §1

[13] = tested on: ragweed (common ragweed, Ambrosia elatior); experiment: Test A preemergence ragweed; settings: 0 to 100 scale, 0 no effect, 100 complete control
How it was run: as §1

[14] = tested on: foxtail, giant (giant foxtail, Setaria faberii); experiment: Test A preemergence foxtail, giant; settings: 0 to 100 scale, 0 no effect, 100 complete control
How it was run: as §1

[15] = tested on: blackgrass (Alopecurus myosuroides); experiment: Test A postemergence blackgrass; settings: 0 to 100 scale, 0 is no effect, 100 is complete control
How it was run: as §1

[16] = tested on: ragweed (common ragweed, Ambrosia elatior); experiment: Test A postemergence ragweed; settings: 0 to 100 scale, 0 is no effect, 100 is complete control
How it was run: as §1

rice (Oryza sativa) = experiment: Test B flooded paddy test rice; settings: Table B, Flood
How it was run: as §2

[17] = tested on: galium (catchweed bedstraw, Galium aparine); experiment: Test A postemergence galium; settings: 0 to 100 scale, 0 is no effect, 100 is complete control
How it was run: as §1

corn (Zea mays) = experiment: Test A postemergence corn; settings: 0 to 100 scale, 0 is no effect, 100 is complete control
How it was run: as §1

[18] = tested on: barnyardgrass (Echinochloa crus-galli); experiment: Test B flooded paddy test barnyardgrass; settings: Table B, Flood
How it was run: as §2

SMILES: O=C1NCCC(c2cccc(C(F)(F)F)c2)C1C(=O)Nc1ccccc1Cl (racemic) [Compound 17]
- Plant response rating, Barnyardgrass ([1]; 125 g ai/ha): 80
- Plant response rating, Barnyardgrass ([1]; 500 g ai/ha): 80
- Plant response rating, Kochia (kochia (Kochia scoparia) [2]; 125 g ai/ha): 0
- Plant response rating, Kochia (kochia (Kochia scoparia) [2]; 500 g ai/ha): 20
- Plant response rating, Foxtail, Giant ([3]; 125 g ai/ha): 80
- Plant response rating, Foxtail, Giant ([3]; 500 g ai/ha): 80
- Plant response rating, Wheat ([4]; 125 g ai/ha): 20
- Plant response rating, Wheat ([4]; 500 g ai/ha): 20
- Ryegrass, Italian plant response rating ([5]; 125 g ai/ha): 20
- Ryegrass, Italian plant response rating ([5]; 500 g ai/ha): 40
- Barnyardgrass plant response rating ([6]; 125 g ai/ha, 0 no effect, 100 complete control): 50
- Barnyardgrass plant response rating ([6]; 500 g ai/ha, 0 no effect, 100 complete control): 80
- Plant response rating ([7]; 500 g ai/ha, scale 0 to 100): 40
- Plant response rating, Pigweed ([8]; 125 g ai/ha): 0
- Plant response rating, Pigweed ([8]; 500 g ai/ha): 0
- Kochia plant response rating (kochia (Kochia scoparia) [9]; 125 g ai/ha): 30
- Kochia plant response rating (kochia (Kochia scoparia) [9]; 500 g ai/ha): 30
- Plant response rating, Ryegrass, Italian ([10]; 125 g ai/ha): 0
- Plant response rating, Ryegrass, Italian ([10]; 500 g ai/ha): 20
- Plant response rating ([11]; 500 g ai/ha, scale 0 to 100): 0
- Pigweed plant response rating ([12]; 125 g ai/ha): 0
- Pigweed plant response rating ([12]; 500 g ai/ha): 0
- Ragweed plant response rating ([13]; 125 g ai/ha): 0
- Ragweed plant response rating ([13]; 500 g ai/ha): 0
- Foxtail, Giant plant response rating ([14]; 125 g ai/ha): 80
- Foxtail, Giant plant response rating ([14]; 500 g ai/ha): 90
- Plant response rating, Blackgrass ([15]; 125 g ai/ha): 30
- Plant response rating, Blackgrass ([15]; 500 g ai/ha): 30
- Plant response rating, Ragweed ([16]; 125 g ai/ha): 0
- Plant response rating, Ragweed ([16]; 500 g ai/ha): 0
- Plant response rating (rice (Oryza sativa); 500 g ai/ha, scale 0 to 100): 0
- Plant response rating, Galium ([17]; 125 g ai/ha): 20
- Plant response rating, Galium ([17]; 500 g ai/ha): 20
- Plant response rating, Corn (corn (Zea mays); 125 g ai/ha): 0
- Plant response rating, Corn (corn (Zea mays); 500 g ai/ha): 0
- Plant response rating ([18]; 500 g ai/ha, scale 0 to 100): 35

SMILES: O=C1NCCC(c2ccc(C(F)(F)F)cc2)C1C(=O)Nc1ccccc1Cl (stereo not shown) [Compound 13, N-(2-chlorophenyl)-2-oxo-4-[4-(trifluoromethyl)phenyl]-3-piperidinecarboxamide]
- pest or weed control at 125 g/ha ([1]; Echinochloa crus-galli, post-emergence, 240 h, 125 g ai/ha, read-out: Plant response rating, Barnyardgrass): 30%
- pest or weed control at 500 g/ha ([1]; Echinochloa crus-galli, post-emergence, 240 h, 500 g ai/ha, read-out: Plant response rating, Barnyardgrass): 90%
- pest or weed control at 125 g/ha (kochia (Kochia scoparia) [2]; Bassia scoparia, post-emergence, 240 h, 125 g ai/ha, read-out: Plant response rating, Kochia): 0%
- pest or weed control at 500 g/ha (kochia (Kochia scoparia) [2]; Bassia scoparia, post-emergence, 240 h, 500 g ai/ha, read-out: Plant response rating, Kochia): 0%
- pest or weed control at 125 g/ha ([3]; Setaria faberi, post-emergence, 240 h, 125 g ai/ha, read-out: Plant response rating, Foxtail, Giant): 30%
- pest or weed control at 500 g/ha ([3]; Setaria faberi, post-emergence, 240 h, 500 g ai/ha, read-out: Plant response rating, Foxtail, Giant): 90%
- plant injury at 125 g/ha ([4]; Triticum aestivum, post-emergence, 240 h, 125 g ai/ha, read-out: Plant response rating, Wheat): 0%
- plant injury at 500 g/ha ([4]; Triticum aestivum, post-emergence, 240 h, 500 g ai/ha, read-out: Plant response rating, Wheat): 0%
- pest or weed control at 125 g/ha ([5]; Lolium multiflorum, pre-emergence, 240 h, 125 g ai/ha, read-out: Ryegrass, Italian plant response rating): 0%
- pest or weed control at 500 g/ha ([5]; Lolium multiflorum, pre-emergence, 240 h, 500 g ai/ha, read-out: Ryegrass, Italian plant response rating): 0%
- Plant response rating, Barnyardgrass ([6]; 500 g ai/ha, 0 is no effect, 100 is complete control): 70
- pest or weed control at 125 g/ha ([6]; Echinochloa crus-galli, pre-emergence, 240 h, 125 g ai/ha, 0 no effect, 100 complete control, read-out: Barnyardgrass plant response rating): 40%
- pest or weed control at 250 g/ha ([7]; Heteranthera limosa, 250 g ai/ha, scale 0 to 100, read-out: Plant response rating): 70%
- pest or weed control at 1000 g/ha ([7]; Heteranthera limosa, 1000 g ai/ha, scale 0 to 100, read-out: Plant response rating): 100%
- pest or weed control at 125 g/ha ([8]; Amaranthus retroflexus, post-emergence, 240 h, 125 g ai/ha, read-out: Plant response rating, Pigweed): 0%
- pest or weed control at 500 g/ha ([8]; Amaranthus retroflexus, post-emergence, 240 h, 500 g ai/ha, read-out: Plant response rating, Pigweed): 0%
- pest or weed control at 125 g/ha (kochia (Kochia scoparia) [9]; Bassia scoparia, pre-emergence, 240 h, 125 g ai/ha, read-out: Kochia plant response rating): 0%
- pest or weed control at 500 g/ha (kochia (Kochia scoparia) [9]; Bassia scoparia, pre-emergence, 240 h, 500 g ai/ha, read-out: Kochia plant response rating): 40%
- pest or weed control at 125 g/ha ([10]; Lolium multiflorum, post-emergence, 240 h, 125 g ai/ha, read-out: Plant response rating, Ryegrass, Italian): 0%
- pest or weed control at 500 g/ha ([10]; Lolium multiflorum, post-emergence, 240 h, 500 g ai/ha, read-out: Plant response rating, Ryegrass, Italian): 0%
- pest or weed control at 250 g/ha ([11]; Cyperus difformis, 250 g ai/ha, scale 0 to 100, read-out: Plant response rating): 0%
- pest or weed control at 1000 g/ha ([11]; Cyperus difformis, 1000 g ai/ha, scale 0 to 100, read-out: Plant response rating): 0%
- pest or weed control at 125 g/ha ([12]; Amaranthus retroflexus, pre-emergence, 240 h, 125 g ai/ha, read-out: Pigweed plant response rating): 0%
- pest or weed control at 500 g/ha ([12]; Amaranthus retroflexus, pre-emergence, 240 h, 500 g ai/ha, read-out: Pigweed plant response rating): 0%
- pest or weed control at 125 g/ha ([13]; Ambrosia artemisiifolia, pre-emergence, 240 h, 125 g ai/ha, read-out: Ragweed plant response rating): 0%
- pest or weed control at 500 g/ha ([13]; Ambrosia artemisiifolia, pre-emergence, 240 h, 500 g ai/ha, read-out: Ragweed plant response rating): 0%
- pest or weed control at 125 g/ha ([14]; Setaria faberi, pre-emergence, 240 h, 125 g ai/ha, read-out: Foxtail, Giant plant response rating): 70%
- pest or weed control at 500 g/ha ([14]; Setaria faberi, pre-emergence, 240 h, 500 g ai/ha, read-out: Foxtail, Giant plant response rating): 90%
- pest or weed control at 125 g/ha ([15]; Alopecurus myosuroides, post-emergence, 240 h, 125 g ai/ha, read-out: Plant response rating, Blackgrass): 0%
- pest or weed control at 500 g/ha ([15]; Alopecurus myosuroides, post-emergence, 240 h, 500 g ai/ha, read-out: Plant response rating, Blackgrass): 0%
- pest or weed control at 125 g/ha ([16]; Ambrosia artemisiifolia, post-emergence, 240 h, 125 g ai/ha, read-out: Plant response rating, Ragweed): 0%
- pest or weed control at 500 g/ha ([16]; Ambrosia artemisiifolia, post-emergence, 240 h, 500 g ai/ha, read-out: Plant response rating, Ragweed): 0%
- plant injury at 250 g/ha (rice (Oryza sativa); Oryza sativa, 250 g ai/ha, scale 0 to 100, read-out: Plant response rating): 0%
- plant injury at 1000 g/ha (rice (Oryza sativa); Oryza sativa, 1000 g ai/ha, scale 0 to 100, read-out: Plant response rating): 0%
- pest or weed control at 125 g/ha ([17]; Galium, post-emergence, 240 h, 125 g ai/ha, read-out: Plant response rating, Galium): 0%
- pest or weed control at 500 g/ha ([17]; Galium, post-emergence, 240 h, 500 g ai/ha, read-out: Plant response rating, Galium): 0%
- Corn plant response rating (crop injury, 0 = no effect, 100 = complete kill) at 125 g/ha (corn (Zea mays); Zea mays, post-emergence, 240 h, 125 g ai/ha): 0%
- Corn plant response rating (crop injury, 0 = no effect, 100 = complete kill) at 500 g/ha (corn (Zea mays); Zea mays, post-emergence, 240 h, 500 g ai/ha): 0%
- pest or weed control at 250 g/ha ([18]; Echinochloa crus-galli, 250 g ai/ha, scale 0 to 100, read-out: Plant response rating): 0%
- pest or weed control at 1000 g/ha ([18]; Echinochloa crus-galli, 1000 g ai/ha, scale 0 to 100, read-out: Plant response rating): 40%
